Assay results as given in patent publication US9302991B2, “Arylamide derivatives as TTX-S blockers” (RaQualia Pharma Inc., priority 2010, dated 2016).

What follows are compounds tested against T1, human Nav1.7 channels (Homo sapiens, UniProt Q15858) (assay: FRET assay, human Nav1.7 (EFS on FDSS)). Settings: CHO cells expressing human Nav1.7, read-out: IC50 against Nav1.7.
T1 construct: expressed in transfected cells; host or cells: CHO
Format: cell-based
Outline: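 IC50 was derived from normalized 440 nm fluorescence ratios of the EFS-evoked membrane-potential response read on FDSS. Recombinant CHO cells were sequentially dye-loaded with coumarin/oxonol FRET pair at room temperature in pH 7.4 buffer before compound addition.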

T1 sequence (Q15858 whole entry): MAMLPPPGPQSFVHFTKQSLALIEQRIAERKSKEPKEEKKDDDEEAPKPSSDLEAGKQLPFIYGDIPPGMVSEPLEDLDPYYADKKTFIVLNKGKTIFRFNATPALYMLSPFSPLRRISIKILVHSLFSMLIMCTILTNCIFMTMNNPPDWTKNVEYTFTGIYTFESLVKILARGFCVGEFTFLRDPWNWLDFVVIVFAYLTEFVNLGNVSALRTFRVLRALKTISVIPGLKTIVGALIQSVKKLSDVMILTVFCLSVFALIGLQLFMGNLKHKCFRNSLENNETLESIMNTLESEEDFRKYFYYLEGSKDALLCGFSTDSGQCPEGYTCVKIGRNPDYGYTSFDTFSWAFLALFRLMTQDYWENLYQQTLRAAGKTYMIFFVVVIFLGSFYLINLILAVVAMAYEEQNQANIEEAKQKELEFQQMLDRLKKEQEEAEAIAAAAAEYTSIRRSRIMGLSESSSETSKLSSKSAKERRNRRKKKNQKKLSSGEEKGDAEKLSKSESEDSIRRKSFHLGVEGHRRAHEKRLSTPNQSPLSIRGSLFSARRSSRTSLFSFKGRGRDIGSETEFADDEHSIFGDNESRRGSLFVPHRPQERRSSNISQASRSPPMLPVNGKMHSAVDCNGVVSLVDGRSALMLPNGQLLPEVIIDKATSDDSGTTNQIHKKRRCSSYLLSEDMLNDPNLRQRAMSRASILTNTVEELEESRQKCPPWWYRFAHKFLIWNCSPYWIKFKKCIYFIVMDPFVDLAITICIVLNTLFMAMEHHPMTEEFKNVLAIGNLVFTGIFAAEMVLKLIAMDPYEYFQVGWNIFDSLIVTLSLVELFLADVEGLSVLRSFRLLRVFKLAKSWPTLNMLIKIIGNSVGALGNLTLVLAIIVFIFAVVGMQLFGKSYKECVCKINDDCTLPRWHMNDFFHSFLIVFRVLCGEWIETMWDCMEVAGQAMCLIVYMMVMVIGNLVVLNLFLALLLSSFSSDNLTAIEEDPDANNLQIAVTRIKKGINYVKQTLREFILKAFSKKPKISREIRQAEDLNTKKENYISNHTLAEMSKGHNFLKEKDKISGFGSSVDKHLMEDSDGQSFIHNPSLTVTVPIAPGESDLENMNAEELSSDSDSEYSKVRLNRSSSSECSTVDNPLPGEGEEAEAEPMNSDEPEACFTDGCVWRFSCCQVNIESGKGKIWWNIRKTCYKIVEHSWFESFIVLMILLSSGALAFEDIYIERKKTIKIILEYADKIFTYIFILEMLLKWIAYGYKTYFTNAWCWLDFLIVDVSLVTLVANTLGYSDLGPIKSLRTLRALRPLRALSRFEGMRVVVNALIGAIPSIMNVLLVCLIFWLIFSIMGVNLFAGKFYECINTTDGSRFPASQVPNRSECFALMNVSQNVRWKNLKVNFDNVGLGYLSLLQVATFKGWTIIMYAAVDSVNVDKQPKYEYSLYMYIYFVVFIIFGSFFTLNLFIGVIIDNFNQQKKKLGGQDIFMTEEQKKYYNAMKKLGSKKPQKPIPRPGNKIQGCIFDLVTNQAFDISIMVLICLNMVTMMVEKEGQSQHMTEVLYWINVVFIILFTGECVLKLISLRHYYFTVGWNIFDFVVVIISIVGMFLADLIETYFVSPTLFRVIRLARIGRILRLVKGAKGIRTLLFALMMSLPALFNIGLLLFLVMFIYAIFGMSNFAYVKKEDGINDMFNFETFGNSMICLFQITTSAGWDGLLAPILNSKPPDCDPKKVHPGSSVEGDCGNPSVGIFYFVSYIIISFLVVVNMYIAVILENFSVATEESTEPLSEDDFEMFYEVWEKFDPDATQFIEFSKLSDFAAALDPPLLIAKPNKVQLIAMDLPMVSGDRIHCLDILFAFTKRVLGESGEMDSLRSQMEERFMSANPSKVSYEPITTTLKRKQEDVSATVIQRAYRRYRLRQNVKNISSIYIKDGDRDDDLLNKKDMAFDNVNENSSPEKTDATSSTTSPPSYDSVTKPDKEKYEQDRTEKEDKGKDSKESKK

IC50, < 1 µM:
CC(C)C(=O)Nc1nccc(C(=O)NCc2cnc(OCC(F)(F)F)c(Cl)c2)n1 [Example 412, N-((5-chloro-6-(2,2,2-trifluoroethoxy)pyridin-3-yl)methyl)-2-isobutyramidopyrimidine-4-carboxamide]
CCC(=O)Nc1cc(C(=O)NC(C)c2ccc(OCC(F)(F)F)cc2Cl)ccn1 (single isomer, unassigned) [Example 797, N-(1-(2-chloro-4-(2,2,2-trifluoroethoxy)phenyl)ethyl)-2-propionamidoisonicotinamide]
CC(=O)Nc1cc(C(=O)N(C)C(C)c2cnc(OCC(F)(F)F)c(C)c2)cc(C)n1 (single isomer, unassigned) [Example 391, 2-acetamido-N,6-dimethyl-N-(1-(5-methyl-6-(2,2,2-trifluoroethoxy)pyridin-3-yl)ethyl)isonicotinamide]
CC(C)C(=O)Nc1cc(C(=O)NC(C)c2ccc(OCC(F)(F)C(F)F)nc2)ccn1 (single isomer, unassigned) [Example 654, 2-isobutyramido-N-(1-(6-(2,2,3,3-tetrafluoropropoxy)pyridin-3-yl)ethyl)isonicotinamide]
CC(NC(=O)c1ccnc(NC(=O)C2CCC2)n1)c1cnc(OCC(F)(F)F)c(Cl)c1 (single isomer, unassigned) [Example 213, N-(1-(5-chloro-6-(2,2,2-trifluoroethoxy)pyridin-3-yl)ethyl)-2-(cyclobutanecarboxamido)pyrimidine-4-carboxamide]
CCOc1cc(CNC(=O)c2cc(C)nc(NC(C)=O)c2)cnc1OCC(F)(F)F [Example 264, 2-acetamido-N-((5-ethoxy-6-(2,2,2-trifluoroethoxy)pyridin-3-yl)methyl)-6-methylisonicotinamide]
CCC(=O)Nc1cc(C(=O)NC(CC)c2ccc(OCC(F)(F)F)nc2)cc(C)n1 (single isomer, unassigned) [Example 133, 2-methyl-6-propionamido-N-(1-(6-(2,2,2-trifluoroethoxy)pyridin-3-yl)propyl)isonicotinamide]
O=C(NCc1ccc(OCC(F)(F)F)nc1N1CCCCC1)c1ccnc(NC(=O)C2CC2)c1 [Example 304, 2-(cyclopropanecarboxamido)-N-((2-(piperidin-1-yl)-6-(2,2,2-trifluoroethoxy)pyridin-3-yl)methyl)isonicotinamide]
Cc1cc(OCC(F)(F)F)ncc1CNC(=O)c1ccnc(NC(=O)C(C)C)c1 [Example 178, 2-isobutyramido-N-((4-methyl-6-(2,2,2-trifluoroethoxy)pyridin-3-yl)methyl)isonicotinamide]
CC(=O)Nc1cc(C(=O)NCc2cccc(C(F)(F)F)c2)cc(C)n1 [Example 532, 2-acetamido-6-methyl-N-(3-(trifluoromethyl)benzyl)isonicotinamide]
CC(NC(=O)c1ccnc(NC(=O)C2CC2)c1)c1ccc(OCC(F)(F)C(F)(F)F)nc1 (single isomer, unassigned) [Example 689, 2-(cyclopropanecarboxamido)-N-(1-(6-(2,2,3,3,3-pentafluoropropoxy)pyridin-3-yl)ethyl)isonicotinamide]
CC(=O)Nc1cc(C(=O)NC(C)c2cccc(OCC(F)(F)F)c2)cc(C)n1 (single isomer, unassigned) [Example 1009, 2-acetamido-6-methyl-N-(1-(3-(2,2,2-trifluoroethoxy)phenyl)ethyl)isonicotinamide]
CCCC(=O)Nc1cc(C(=O)NCc2ccc(OCC(F)(F)F)nc2N2CCCCC2)ccn1 [Example 308, 2-butyramido-N-((2-(piperidin-1-yl)-6-(2,2,2-trifluoroethoxy)pyridin-3-yl)methyl)isonicotinamide]
O=C(NCc1ccc(OCC(F)(F)C(F)F)nc1)c1ccnc(NC(=O)C2CC2)n1 [Example 651, 2-(cyclopropanecarboxamido)-N-((6-(2,2,3,3-tetrafluoropropoxy)pyridin-3-yl)methyl)pyrimidine-4-carboxamide]
Cc1cc(C(=O)NC(C)c2ccc(OCC(F)F)cc2C)cc(NC(=O)C(C)C)n1 (single isomer, unassigned) [Example 1104, N-(1-(4-(2,2-difluoroethoxy)-2-methylphenyl)ethyl)-2-isobutyramido-6-methylisonicotinamide]
CCC(=O)Nc1cc(C(=O)NCc2ccc(OCC(F)F)nc2OC)ccn1 [Example 1152, N-((6-(2,2-difluoroethoxy)-2-methoxypyridin-3-yl)methyl)-2-propionamidoisonicotinamide]
Cc1cc(C(=O)NC(C)c2cnc(OCC(F)F)c(C)c2)cc(NC(=O)C2CC2)n1 (single isomer, unassigned) [Example 938, 2-(cyclopropanecarboxamido)-N-(1-(6-(2,2-difluoroethoxy)-5-methylpyridin-3-yl)ethyl)-6-methylisonicotinamide]
CCC(=O)Nc1cc(C(=O)NC(C)c2ccc(OCC(C)(F)F)nc2)ccn1 (single isomer, unassigned) [Example 781, N-(1-(6-(2,2-difluoropropoxy)pyridin-3-yl)ethyl)-2-propionamidoisonicotinamide]
Cc1cc(C(=O)NCc2ccc(OCC(F)F)c(C)c2)cc(NC(=O)C(C)C)n1 [Example 994, N-(4-(2,2-difluoroethoxy)-3-methylbenzyl)-2-isobutyramido-6-methylisonicotinamide]
CCCC(=O)Nc1cc(C(=O)NCc2cnc(OCC(F)F)c(CC)c2)ccn1 [Example 933, 2-butyramido-N-((6-(2,2-difluoroethoxy)-5-ethylpyridin-3-yl)methyl)isonicotinamide]
Cc1cc(C(=O)NC(C)c2ccc(OCC(F)F)c(C)c2)cc(NC(=O)C2CC2)n1 (single isomer, unassigned) [Example 866, 2-(cyclopropanecarboxamido)-N-(1-(4-(2,2-difluoroethoxy)-3-methylphenyl)ethyl)-6-methylisonicotinamide]
COc1cc(CNC(=O)c2cc(C)nc(NC(C)=O)c2)ccc1OCC(F)(F)F [Example 884, 2-acetamido-N-(3-methoxy-4-(2,2,2-trifluoroethoxy)benzyl)-6-methylisonicotinamide]
CCC(=O)Nc1cc(C(=O)NCc2cccc(C(F)(F)F)c2OC)ccn1 [Example 1017, N-(2-methoxy-3-(trifluoromethyl)benzyl)-2-propionamidoisonicotinamide]
COc1nc(OCC(F)F)ccc1CNC(=O)c1cc(C)nc(NC(C)=O)c1 [Example 1156, 2-acetamido-N-((6-(2,2-difluoroethoxy)-2-methoxypyridin-3-yl)methyl)-6-methylisonicotinamide]
O=C(NCc1cnc(OCC(F)F)c(Cl)c1)c1ccnc(NC(=O)C2CC2)c1 [Example 705, N-((5-chloro-6-(2,2-difluoroethoxy)pyridin-3-yl)methyl)-2-(cyclopropanecarboxamido)isonicotinamide]
CC(NC(=O)c1ccnc(NC(=O)C2CC2)c1)c1ccc(OCC(F)(F)F)c(Cl)c1 (single isomer, unassigned) [Example 675, N-(1-(3-chloro-4-(2,2,2-trifluoroethoxy)phenyl)ethyl)-2-(cyclopropanecarboxamido)isonicotinamide]
CCC(=O)Nc1cc(C(=O)NC(C)c2cnc(OCC(F)(F)F)c(F)c2)ccn1 (single isomer, unassigned) [Example 74, N-(1-(5-fluoro-6-(2,2,2-trifluoroethoxy)pyridin-3-yl)ethyl)-2-propionamidoisonicotinamide]
CC(C)C(=O)Nc1cc(C(=O)NC(C)c2ccc(OCC(C)(F)F)nc2)ccn1 (single isomer, unassigned) [Example 785, N-(1-(6-(2,2-difluoropropoxy)pyridin-3-yl)ethyl)-2-isobutyramidoisonicotinamide]
Cc1cc(C(=O)NCc2cnc(OCC(F)(F)F)c(C)c2)nc(NC(=O)C2CC2)n1 [Example 365, 2-(cyclopropanecarboxamido)-6-methyl-N-((5-methyl-6-(2,2,2-trifluoroethoxy)pyridin-3-yl)methyl)pyrimidine-4-carboxamide]
CC(=O)Nc1cc(C(=O)NCc2ccc(OCC(F)F)cc2C)cc(C)n1 [Example 1007, 2-acetamido-N-(4-(2,2-difluoroethoxy)-2-methylbenzyl)-6-methylisonicotinamide]
COc1cc(OC(F)(F)F)ccc1CNC(=O)c1cc(C)nc(NC(=O)C(C)C)c1 [Example 871, 2-isobutyramido-N-(2-methoxy-4-(trifluoromethoxy)benzyl)-6-methylisonicotinamide]
CC(=O)Nc1cc(C(=O)NCc2ccc(OCC(F)F)c(C)c2)ccn1 [Example 988, 2-acetamido-N-(4-(2,2-difluoroethoxy)-3-methylbenzyl)isonicotinamide]
CCC(=O)Nc1cc(C(=O)NCc2cc(F)c(OCC(F)(F)F)nc2C)cc(C)n1 [Example 313, N-((5-fluoro-2-methyl-6-(2,2,2-trifluoroethoxy)pyridin-3-yl)methyl)-2-methyl-6-propionamidoisonicotinamide]
COc1cc(CNC(=O)c2cc(C)nc(NC(=O)C3CC3)n2)cnc1OCC(F)(F)F [Example 442, 2-(cyclopropanecarboxamido)-N-((5-methoxy-6-(2,2,2-trifluoroethoxy)pyridin-3-yl)methyl)-6-methylpyrimidine-4-carboxamide]
